Results published in patent US10463754B2, “Process for decontaminating or sterilizing an article” (priority 2014, dated 2019).
Read-outs that look alike come from different tables or passages of the source.

System: spores of Bacillus subtilis
Format: cell-based
Protocol: The efficacy of the inventive process is assessed using a time kill suspension test method and spores of Bacillus subtilis.
Peracetic acid (PAA) and hydrogen peroxide (H2O2) are prepared as concentrated stocks (3× concentrate). Each test contains 100 μl of the PAA concentrate and 100 μl of the H2O2 concentrate. Controls containing only PAA or H2O2 are also prepared. These contain 100 μl of either the PAA concentrate or H2O2 concentrate and 100 μl of de-ionized water. To each test, 100 μl of spores are added while starting the timer concurrently. The samples are mixed thoroughly. The temperature of the samples is room temperature. At the appropriate contact times, 10 μl of the appropriate test sample are placed into 90 μl of the appropriate neutralizing solution, mixed thoroughly and incubated for at least 10 minutes. Ten fold serial dilutions are prepared through 10^−6 and plated using the drop counting method. The plates are then incubated aerobically at 37° C. for 1-2 days. Following incubation, colony forming units (CFU) are counted using standard plate count techniques and converted to log 10 values for analysis.

Compound	Time (min) to achieve 4 log reduction (H2O2 0.10% by weight, PAA 0.00% (H2O2 alone), extrapolated from experimental data)	Time (min) to achieve 4 log reduction (H2O2 0.20% by weight, PAA 0.00% (H2O2 alone), extrapolated from experimental data)	Time (min) to achieve 4 log reduction (H2O2 0.40% by weight, PAA 0.00% (H2O2 alone), extrapolated from experimental data)	Time (min) to achieve 4 log reduction (H2O2 0.80% by weight, PAA 0.00% (H2O2 alone))	Time (min) to achieve 4 log reduction (H2O2 1.60% by weight, PAA 0.00% (H2O2 alone))	Time (min) to achieve 4 log reduction (H2O2 3.20% by weight, PAA 0.00% (H2O2 alone))	Time (min) to achieve 4 log reduction (H2O2 6.40% by weight, PAA 0.00% (H2O2 alone), room temperature)	Time (min) to achieve 4 log reduction (PAA 0.005% by weight, H2O2 0.00% (PAA alone), extrapolated from data for PAA 0.08, 0.16 and 0.32%)	Time (min) to achieve 4 log reduction (PAA 0.01% by weight, H2O2 0.00% (PAA alone), extrapolated from data for PAA 0.08, 0.16 and 0.32%)	Time (min) to achieve 4 log reduction (PAA 0.02% by weight, H2O2 0.00% (PAA alone), extrapolated from data for PAA 0.08, 0.16 and 0.32%)	Time (min) to achieve 4 log reduction (PAA 0.04% by weight, H2O2 0.00% (PAA alone), extrapolated from data for PAA 0.08, 0.16 and 0.32%)	Time (min) to achieve 4 log reduction (PAA 0.08% by weight, H2O2 0.00% (PAA alone))	Time (min) to achieve 4 log reduction (PAA 0.16% by weight, H2O2 0.00% (PAA alone))
OO [H2O2, hydrogen peroxide]	2305.13 min	1213.99 min	639.34 min	343.04 min	168.96 min	97.28 min	48.64 min						
CC(=O)OO [PAA, Peracetic acid]								711625 min	67744.68 min	6449.101 min	613.9362 min	70.40 min	4.64 min
